Entries after “also recorded” stand apart in the source; their conditions may differ.
How the values were obtained:
[1] = test system: tachyzoites of RH strain of T. gondii; experiment: Inhibition of T. gondii tachyzoites in vitro; type: cell-based, Toxoplasma gondii; details: uptake of tritiated uracil
[2] = test system: human foreskin fibroblasts (HFF); experiment: Toxicity for host cells; type: cell-based; details: uptake of 3H thymidine by nonconfluent HFF
[3] = target: T1, TgENR (Toxoplasma gondii, UniProt Q6UCJ9); experiment: TgENR inhibitor assay; type: biochemical; details: for Inhibition of TgENR, in words: recombinant TgENR enzyme assay
T1 sequence (Q6UCJ9 28-417): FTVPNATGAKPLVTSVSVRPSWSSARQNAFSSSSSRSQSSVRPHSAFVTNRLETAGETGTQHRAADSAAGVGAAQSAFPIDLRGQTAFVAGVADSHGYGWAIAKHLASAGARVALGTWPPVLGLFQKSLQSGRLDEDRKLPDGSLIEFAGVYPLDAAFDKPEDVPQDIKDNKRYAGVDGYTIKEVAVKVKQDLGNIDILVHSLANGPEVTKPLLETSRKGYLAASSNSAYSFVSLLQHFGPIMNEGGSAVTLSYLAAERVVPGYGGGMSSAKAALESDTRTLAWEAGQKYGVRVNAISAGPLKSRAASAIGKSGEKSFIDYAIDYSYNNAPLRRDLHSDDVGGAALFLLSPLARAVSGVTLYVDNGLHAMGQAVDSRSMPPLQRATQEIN

[4] = test system: T. gondii (RH strain, Type 1); experiment: Testing of inhibitors in vivo, acute parenteral infection of mice; design: species or system Toxoplasma gondii; details: for Parasite burden in mice: CD1 mice infected intraperitoneally with 2000 T. gondii, inhibitors intraperitoneally at 10mg/kg, peritoneal cavity, day 5 post-infection, P<0.05; for Efficacy in protecting mice against parasite burden relative to triclosan: higher than triclosan itself
[5] = Human liver microsomal stability; type: in vitro ADME; details: compared with control drug verapamil
[6] = test system: P. falciparum ENR; details: read-out: IC50 against P. falciparum ENR; cited from earlier work
[7] = test system: S. aureus ENR; details: cited from earlier work
[8] = test system: E. coli ENR; details: cited from earlier work
[9] = earlier studies; cited from earlier work

SMILES	Effect on T. gondii tachyzoites in tissue culture, in words [1]	Toxicity to fibroblasts, in words [2]	Inhibition of TgENR, in words [3]	further results
O=[N+]([O-])c1ccc(Oc2ccc(Cl)cc2O)c(Cl)c1 [Compound 2]	inhibition of T. gondii tachyzoites	lack of inhibition of fibroblast growth	highly active	IC50 [3]: 45 nM; Parasite burden in mice [4]: reduce parasite burden; Efficacy in protecting mice against parasite burden relative to triclosan [4]: approximately 5 times; Intrinsic clearance, metabolic rate in HLM, in words [5]: slower than the control drug verapamil; IC50 [6]: 200 nM
Oc1cc(Cl)ccc1Oc1ccc(-c2ccccc2)cc1 [Compound 6]				IC50 [3]: > 2000 nM
Oc1cc(Cl)ccc1Oc1cccnc1 [Compound 17]			some activity	
Oc1cc(Cl)ccc1Oc1cnccn1 [Compound 18]			no activity	
CCCc1ccc(Oc2ccc(C#N)cc2Cl)c(O)c1 [Compound 19]	inhibition of T. gondii tachyzoites; also recorded: efficacious	lack of inhibition of fibroblast growth; also recorded: not toxic		Parasite burden in mice [4]: reduce parasite burden; Efficacy in protecting mice against parasite burden relative to triclosan [4]: approximately 5 times; Intrinsic clearance, metabolic rate in HLM, in words [5]: slower than the control drug verapamil
CCCc1ccc(Oc2cccc(B(O)O)c2)c(O)c1 [Compound 20, 3-(2-Hydroxy-4-propylphenoxy)phenyl boronic acid]			very effective inhibitor	
C/C=C/C=C/C(=O)Nc1ccc(Oc2ccc(Cl)cc2O)cc1 [Compound 25, Hexa-2,4-dienoic acid (4-(4-chloro-2-hydroxyphenoxy)-phenyl)amide]	lack of inhibition	toxic		
O=c1cc(OCc2ccccc2)ccn1Cc1ccc([N+](=O)[O-])cc1Cl [Compound 39]	inhibition of T. gondii tachyzoites	lack of inhibition of fibroblast growth	low micro molar; also recorded: poor inhibitor	
CN(Cc1cc2ccccc2n1C)C(=O)/C=C/c1ccc(N)nc1 [Compound 50]			moderate activity	Activity against S. aureus ENR, in words [7]: very effective; Activity against E. coli ENR, in words [8]: very effective
Oc1cc(Cl)ccc1Oc1ccc(Cl)cc1Cl [Triclosan]				Safety in mice, in words [9]: safe

Source: publication PMC2932859 (Journal of medicinal chemistry, 2010)
